Measured values taken from patent US10889572B2, “Reactive oxygen species scavengers and use for treating diseases” (XW LABORATORIES INC., priority 2017, dated 2021).
Counter-ions that a name gives are not always drawn.

These compounds were tested on HT-1080 (fibrosarcoma) cells (assay: Primary screening by ferroptosis assay (Erastin-induced, cell viability, CellTiter-Glo)). Conditions: HT-1080 cells, 30 hours, % remaining activity, read-out: EC50, Inhibition for Ferroptosis in HT-1080 Cell.
Type: cell-based
Description: Cell Lines and Media: HT-1080 (fibrosarcoma) cells were obtained from American Type Culture Collection. Cells were grown in EMEM media, 10% Heat-Inactivated FBS, and penicillin-streptomycin mix (Invitrogen). Cells were maintained at 37° C. and 5% CO2 in a tissue culture incubator.
Cell Viability Assay: Seed 10,000 cell/well of HT-1080 cells with 195 μL growth media in black and clear bottom 96-well plates (Cat #Corning 3904) and allow cells to adhere overnight. The next day, dilute test compound by 2-fold dilution into 12 points with medium containing 400 μM Erastin. Transfer 5 μL of compounds solution into growth medium in triplicated wells. 30 hours later, add Cell Titer-Glo® Luminescent cell viability assay reagent (Cat #, Promega G8081) to measure HT-1080 cell viability according to the manufacture protocol. Briefly, aspirate 100 μL medium, and add 50 μL CellTiter-Glo® Luminescent reagent to each well and incubated for 30 minutes at room temperature to stabilize the Luminescent signal. Seal the plates and centrifuged for 1 minute at 1,000 rpm to remove bubbles. Shake the plates for 1 minute on an orbital shaker. Read the plate to detect Luminescent signal with EnSpire Multimode Plate Reader (PerkinElmer). The remaining activity % is used to evaluate Erastin induced ferroptosis in HT-1080 cells and expressed as the following formula: % Remaining Activity−100×[(Sample−Backgroundavg)/(Vehicle−Background avg)]
Sample: Readout from the test compound
Vehicle: Readout from the vehicle sample
Background: Readout from the Erastin only treatment
Dose response curve is graphed by using the non-linear regression analysis (formula equation 201) in XLFit (Excel add-in software) for the average % remaining activity from triplicates, and the EC50 values is then calculated. In this anti-ferroptosis assay, ferrostatin-1, and XJB-5-131 are included as reference. The acceptance criteria were set based on historical result, mean±2.58*SD in logarithmic scale, meanwhile Z′>0.5.

**Q.** Which EC50 does the source give for `CC(C)C[C@@H](/C=C/[C@H](Cc1ccccc1)C(=O)N1CCC[C@H]1C(=O)N[C@@H](CCCCNC(=O)OCc1ccccc1)C(=O)NC1CC(C)(C)N(O)C(C)(C)C1)NC(=O)OC(C)(C)C` [Example XXVII, Benzyl N-[(5S)—5-{[(2S)-1-[(2S,3E,5S)-2-benzyl-5-{[(tertbutoxy)carbonyl]amino}-7-methyloct-3-enoyl]pyrrolidin-2-yl]formamido}-5-[(1-hydroxy-2,2,6,6-tetramethylpipe-ridin-4-yl)carbamoyl]pentyl]carbamate] here?
**A.** 141 nM

**Q.** For `CC(C)C[C@@H](/C=C/[C@H](Cc1ccccc1)C(=O)N1CCC[C@H]1C(=O)N[C@@H](CCCNC(=O)OC1CC(C)(C)N(O)C(C)(C)C1)C(=O)OC(C)C)NC(=O)OC(C)(C)C` [Example XXX, Propan-2-yl (2S)—2-{[(2S)-1-[(2S,3E,5S)-2-benzyl-5-{[(tert-butoxy)carbonyl]amino}-7-methyloct-3-enoyl]pyrrolidin-2-yl]formamido}-5-({[(1-hydroxy-2,2,6,6-tetramethylpiperidin-4-yl)oxy]carbonyl}amino)pentanoate], which EC50 is on record?
**A.** 46 nM

**Q.** Which EC50 does the source give for `CC(C)C[C@@H](/C=C/[C@H](Cc1ccccc1)C(=O)N1CCC[C@H]1C(=O)N[C@@H](CCCNC(=O)OCc1ccccc1)C(=O)OC1CC(C)(C)N(O)C(C)(C)C1)NC(=O)OC(C)(C)C` [Example XXXXI, (S)-1-hydroxy-2,2,6,6-tetramethylpiperidin-4-yl 2-((S)-1-((2S,5S,E)-2-benzyl-5-((tert-butoxycarbonyl)amino)-7-methyloct-3-enoyl)pyrrolidine-2-carboxamido)-5-(((benzyloxy)carbonyl)amino)pentanoate] here?
**A.** 139 nM

**Q.** With `CC(C)C[C@@H](/C=C/[C@H](Cc1ccccc1)C(=O)N1CCC[C@H]1C(=O)N[C@@H](CCCNC(=O)OC1CC(C)(C)N(O)C(C)(C)C1)C(=O)NC(C)C)NC(=O)OC(C)(C)C` [Example XXXXV] as the compound, how does the EC50 read?
**A.** 144 nM

Same assay, conditions: Homo sapiens, HT-1080, 30 h, HT-1080 cells, % remaining activity, read-out: EC50, Inhibition for Ferroptosis in HT-1080 Cell

**Q.** With `Cc1cc(O)cc(C)c1CNC(=O)[C@H](CCCNC(=O)OCc1ccccc1)NC(=O)[C@@H]1CCCN1C(=O)[C@H](/C=C/[C@H](CC(C)C)NC(=O)OC(C)(C)C)Cc1ccccc1` [Example XXIV, Benzyl N-[(4S)—4-{[(2S)-1-[(2S,3E,5S)-2-benzyl-5-{ [(tert-butoxy)carbonyl]amino}-7-methyloct-3-enoyl]pyrrolidin-2-yl]formamido}-4-{[(4-hydroxy-2,6-dimethylphenyl)methyl]carbamoyl}butyl]carbamate] as the compound, how does the EC50 read?
**A.** > 4000 nM

**Q.** With `CC(C)C[C@@H](/C=C/[C@H](Cc1ccccc1)C(=O)N1CCC[C@H]1C(=O)N[C@H](C(=O)N[C@@H](CCCNC(=O)OCc1ccccc1)C(=O)NC1CC(C)(C)N(O)C(C)(C)C1)C(C)C)NC(=O)OC1CC(C)(C)N(O)C(C)(C)C1` [Example XXV, 1-Hydroxy-2,2,6,6-tetramethylpiperidin-4-yl N-[(4S,5E,7S)-7-benzyl-8-[(2S)—2-{[(1S)—1-{[(1S)—4-{[(benzyloxy)carbonyl]amino}-1-[(1-hydroxy-2,2,6,6-tetramethylpiperidin-4-yl)carbamoyl]butyl]carbamoyl}-2-methylpropyl]carbamoyl}pyrrolidin-1-yl]-2-methyl-8-oxooct-5-en-4-yl]carbamate dihydrochloride] as the compound, how does the EC50 read?
**A.** 255 nM

**Q.** Which EC50 does the source give for `CC(C)C[C@@H](/C=C/[C@H](Cc1ccccc1)C(=O)N1CCC[C@H]1C(=O)N[C@@H](CCCCNC(=O)C1CC(C)(C)N(O)C1(C)C)C(=O)OC(C)C)NC(=O)OC(C)(C)C` (stereo partly drawn) [Example XXXII, Propan-2-yl (2S)—2-{[(2S)-1-[(2S,3E,5S)-2-benzyl-5-{[(tert-butoxy)carbonyl]amino}-7-methyloct-3-enoyl]pyrrolidin-2-yl]formamido}-6-[(1-oxyl-2,2,5,5-tetramethylpyrrolidin-3-yl)formamido]-hexanoate] here?
**A.** 573 nM

**Q.** How did the EC50 turn out when `CC(C)C[C@@H](/C=C/[C@H](Cc1ccccc1)C(=O)N1CCC[C@H]1C(=O)N[C@H](CCCCNC(=O)OC1CC(C)(C)N(O)C(C)(C)C1)C(=O)OC(C)C)NC(=O)OC(C)(C)C` [Example XXXIII, Propan-2-yl (2R)—2-{[(2S)-1-[(2S,3E,5S)-2-benzyl-5-{[(tert-butoxy)carbonyl]amino}-7-methyloct-3-enoyl]pyrrolidin-2-yl]formamido}-6-({[(1-oxyl-2,2,6,6-tetramethylpiperidin-4-yl)oxy]carbonyl}amino)hexanoate] was run?
**A.** 291 nM

**Q.** Which EC50 does the source give for `CCN(CC)C(=O)[C@H](CCCNC(=O)OC1CC(C)(C)N(O)C(C)(C)C1)NC(=O)[C@@H]1CCCN1C(=O)[C@H](/C=C/[C@H](CC(C)C)NC(=O)OC(C)(C)C)Cc1ccccc1` [Example XXXV, tert-Butyl N-[(4S,5E,7S)-7-benzyl-8-[(2S)—2-{[(1S)-1-(diethylcarbamoyl)-4-({[(1-oxyl-2,2,6,6-tetramethylpiperidin-4-yl)oxy]carbonyl}amino)-butyl]carbamoyl}pyrrolidin-1-yl]-2-methyl-8-oxooct-5-en-4-yl]carbamate] here?
**A.** 192 nM

**Q.** `CC(C)C[C@@H](/C=C/[C@H](Cc1ccccc1)C(=O)N1CCC[C@H]1C(=O)N[C@@H](CCCCNC(=O)OC1CC(C)(C)N(O)C(C)(C)C1)C(=O)NC(C)(C)C)NC(=O)OC(C)(C)C` [Example XXXVI, tert-Butyl N-[(4S,5E,7S)-7-benzyl-8-[(2S)—2-{[(1S)-1-(tert-butylcarbamoyl)-5-({[(1-oxyl-2,2,6,6-tetramethylpiperidin-4-yl)oxy]carbonyl}amino)pentyl]-carbamoyl}pyrrolidin-1-yl]-2-methyl-8-oxooct-5-en-4-yl]carbamate] was tested. Which EC50 did it give?
**A.** 142 nM

**Q.** `CC(C)C[C@@H](/C=C/[C@H](Cc1ccccc1)C(=O)N1CCC[C@H]1C(=O)N[C@@H](CCCCNC(=O)OC1CC(C)(C)N(O)C(C)(C)C1)C(=O)NC(C)C)NC(=O)OC(C)(C)C` [Example XXXVII, tert-Butyl N-[(4S,5E,7S)-7-benzyl-8-[(2S)—2-{[(1S)-5-({[(1-oxyl-2,2,6,6-tetramethylpiperidin-4-yl)oxy]carbonyl}amino)-1-[(propan-2-yl)carbamoyl]pentyl]carbamoyl}pyrrolidin-1-yl]-2-methyl-8-oxooct-5-en-4-yl]carbamate] was tested. Which EC50 did it give?
**A.** 201 nM

**Q.** How did the EC50 turn out when `CC(C)C[C@@H](/C=C/[C@H](Cc1ccccc1)C(=O)N1CCC[C@H]1C(=O)N[C@@H](CCCNC(=O)OCc1ccccc1)C(=O)OC1CC(C)(C)N(O)C(C)(C)C1)NC(=O)OC(C)(C)C` [Example XXXX, (S)-1-Oxyl-2,2,6,6-tetramethylpiperidin-4-yl 2-((S)-1-((2S,5S,E)-2-benzyl-5-((tert-butoxycarbonyl)amino)-7-methyloct-3-enoyl)pyrrolidine-2-carboxamido)-5-(((benzyloxy)carbonyl)amino)pentanoate] was run?
**A.** 140 nM

Same assay, conditions: Homo sapiens, HT-1080 cells, 30 hours, % remaining activity, read-out: EC50, Inhibition for Ferroptosis in HT-1080 Cell

**Q.** With `CC(C)C[C@@H](/C=C/[C@H](Cc1ccccc1)C(=O)N1CCC[C@H]1C(=O)N[C@H](C(=O)N[C@@H](CCCNC(=O)OC1CC(C)(C)N(O)C(C)(C)C1)C(=O)NC(C)C)C(C)C)NC(=O)OC(C)(C)C` [Example XXXXVII, tert-Butyl N-[(4S,5E,7S)-7-benzyl-8-[(2S)—2-{[(1S)—1-{[(1S)-4-({[(1-oxyl-2,2,6,6-tetramethylpiperidin-4-yl)oxy]carbonyl}amino)-1-[(propan-2-yl)carbamoyl]butyl]carbamoyl}-2-methylpropyl]carbamoyl}pyrrolidin-1-yl]-2-methyl-8-oxooct-5-en-4-yl]carbamate] as the compound, how does the EC50 read?
**A.** 143 nM
